Measurements published in US7868135B2, “Compositions of lipopeptide antibiotic derivatives and methods of use thereof” (priority 2003, dated 2011).
Read-outs that look alike come from different tables or passages of the source.

Columns and labels:
[1] = test system: Streptococcus pneumoniae SPN0002 (PISP); assay: Broad spectrum MIC, Table 17/18 column J; format: cell-based; details: condition J of Table 17, in µg/mL
Procedure: (§1) The antimicrobial lipopeptide derivatives described herein were tested for antimicrobial activity against Gram-positive bacteria as follows. The minimum inhibitory concentrations (MIC) of the antimicrobial lipopeptide derivatives of the invention were determined using NCCLS guidelines M7-A6 (2003) with a slight modification in that doubling serial dilutions were used to dilute the test compounds. The broth phase microdilution method was used. Isolated colonies of Staphylococcus aureus (MSSA) from an 18-24 hour blood agar plate cultures were used to inoculate cation adjusted Mueller-Hinton broth (CAMHB) supplemented with 0.625 mM calcium. […] A negative control containing media alone and a positive growth control containing bacteria with media alone were also included. MICs were determined after incubating the plates at about 37° C. for 24 hours. […] In Tables 1 to 16, R is the core cyclic peptide of amphomycin or aspartocin, which can be in the form of a β-isomer, an anhydro, a dianhydro, or any combination thereof. […] Furthermore, a person of skill in the art will appreciate that all the pounds, or groups of compounds, derived from the various combinations of and substituents shown in Tables 1 to 16, are disclosed by the present the same extent as if each compound or group of compounds was set forth individually.
(§2) Antimicrobial lipopeptide derivatives of the instant invention were tested for antimicrobial activity against Gram-positive bacteria in a variety of media conditions. The […] (MIC) of the antimicrobial lipopeptide derivatives were determined as described in Example 376. The various media used are described in Table 17.

[2] = test system: Staphylococcus aureus SAU0017 (MSSA); assay: Broad spectrum MIC, Table 17/18 columns E, F (+ 0.625 mM calcium; + calcium and 30% bovine serum); format: cell-based; details: in µg/mL; for MIC, media condition E: condition E: + 0.625 mM calcium; for MIC, media condition F: condition F: + calcium and 30% bovine serum
Procedure: as §1, §2

[3] = test system: Enterococcus faecium EFM0101 (VRE, MDR); assay: Broad spectrum MIC, Table 17/18 column A; format: cell-based; details: condition A of Table 17, in µg/mL
Procedure: as §1, §2

[4] = test system: Staphylococcus epidermidis SEP0375 (MRSE); assay: Broad spectrum MIC, Table 17/18 column I; format: cell-based; details: condition I of Table 17, in µg/mL
Procedure: as §1, §2

[5] = test system: Enterococcus faecalis EFS0004 (VSE); assay: Broad spectrum MIC, Table 17/18 B, C, D (CAMHB; + 0.625 mM calcium; + calcium and 30% bovine serum); format: cell-based; details: in µg/mL; for MIC, media condition B: condition B: CAMHB; for MIC, media condition C: condition C: + 0.625 mM calcium; for MIC, media condition D: condition D: + calcium and 30% bovine serum
Procedure: as §1, §2

[6] = test system: Streptococcus pneumoniae SPN0023 (PRSP); assay: Broad spectrum MIC, Table 17/18 column K; format: cell-based; details: condition K of Table 17, in µg/mL
Procedure: as §1, §2

[7] = test system: Streptococcus pneumoniae SPN0032 (PSSP); assay: Broad spectrum MIC, Table 17/18 column L; format: cell-based; details: condition L of Table 17, in µg/mL
Procedure: as §1, §2

[8] = test system: Staphylococcus aureus SAU0031 (VISA); assay: Broad spectrum MIC, Table 17/18 column G; format: cell-based; details: condition G of Table 17, in µg/mL
Procedure: as §1, §2

[9] = test system: Streptococcus pyogenes SPY0001 (PenS); assay: Broad spectrum MIC, Table 17/18 column M; format: cell-based; details: condition M of Table 17, in µg/mL
Procedure: as §1, §2

[10] = test system: Staphylococcus aureus SAU0065 (MRSA); assay: Broad spectrum MIC, Table 17/18 column H; format: cell-based; details: condition H of Table 17, in µg/mL
Procedure: as §1, §2

[11] = test system: Staphylococcus aureus (MSSA)
How it was run: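 Broth microdilution MIC per NCCLS M7-A6 with doubling serial dilutions, in cation-adjusted Mueller-Hinton broth supplemented with 0.625 mM calcium.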

| Compound | MIC, media condition J [1] | MIC, media condition E [2] | MIC, media condition F [2] | MIC, media condition A [3] | MIC, media condition I [4] | MIC, media condition B [5] | MIC, media condition C [5] | MIC, media condition D [5] | MIC, media condition K [6] | MIC, media condition L [7] | MIC, media condition G [8] | MIC, media condition M [9] | MIC, media condition H [10] | MIC ([11]; 24 h) | MIC ([11]; S. aureus (MSSA), CAMHB supplemented with 0.625 mM calcium, 24 hours at about 37° C., a range = compound tested multiple times) |
| --- | --- | --- | --- | --- | --- | --- | --- | --- | --- | --- | --- | --- | --- | --- | --- |
| CCCCCCCCCCCCCCC(=O)NC(CC(=O)O)C(=O)NC1C(=O)N2CCCCC2C(=O)NC(C(C)C(=O)O)C(=O)NC(CC(=O)O)C(=O)NCC(=O)NC(CC(=O)O)C(=O)NCC(=O)NC(C(C)N)C(=O)NC(C(C)C)C(=O)N2CCCC2C(=O)NC1C (centres unmarked) [Compound 2, C15-Amphomycin] | 0.125 | 4 | 8 | 4 | 4 | 2 | 1 | 64 | 0.125 | 0.5 | 8 | 1 | 4 |  |  |
| CCCCCCCCCCCCCCCC(=O)NC(CC(=O)O)C(=O)NC1C(=O)N2CCCCC2C(=O)NC(C(C)C(=O)O)C(=O)NC(CC(=O)O)C(=O)NCC(=O)NC(CC(=O)O)C(=O)NCC(=O)NC(C(C)N)C(=O)NC(C(C)C)C(=O)N2CCCC2C(=O)NC1C (centres unmarked) [Compound 11, C16-Amphomycin] | 0.25 | 0.5 | 8-16 | 0.5-1 | 1 | 0.5 | 0.5-1 | 64 | 0.125 | 0.25 | 2-4 | 0.25-0.5 | 2-4 | 0.5 µg/mL |  |
| CCCCCCCCCCCCCCCCC(=O)NC(CC(=O)O)C(=O)NC1C(=O)N2CCCCC2C(=O)NC(C(C)C(=O)O)C(=O)NC(CC(=O)O)C(=O)NCC(=O)NC(CC(=O)O)C(=O)NCC(=O)NC(C(C)N)C(=O)NC(C(C)C)C(=O)N2CCCC2C(=O)NC1C (centres unmarked) [Compound 12, C17-Amphomycin] | 0.25 | 1-2 | 32-64 | 0.5-1 | 2 | 0.5-1 | 1 | 64 | 0.125 | 0.25-0.5 | 4-8 | 0.5 | 1-2 | 1 to 2 µg/mL |  |
| CCCCCCCCCCCCOc1ccc(C(=O)NC(CC(=O)O)C(=O)NC2C(=O)N3CCCCC3C(=O)NC(C(C)C(=O)O)C(=O)NC(CC(=O)O)C(=O)NCC(=O)NC(CC(=O)O)C(=O)NCC(=O)NC(C(C)N)C(=O)NC(C(C)C)C(=O)N3CCCC3C(=O)NC2C)cc1 (centres unmarked) [Compound 15, CH3—(CH2)11—O-p-Ph-C(═O)-Amphomycin] | 0.125-1 | 2-4 | 32 | 2-4 | 2-4 | 2-4 | 1-4 | >64 | 0.125-0.5 | 0.25-1 | 4-8 | 0.5-2 | 2-8 | 2 to 4 µg/mL |  |
| CCCCCCCCCCCCCCC(=O)NC(CC(=O)O)C(=O)NC1C(=O)N2CCCCC2C(=O)NC(C(C)C(=O)O)C(=O)NC(CC(=O)O)C(=O)NCC(=O)NC(CC(=O)O)C(=O)NCC(=O)NC(C(C)NC(=O)[C@H]2CCCN2)C(=O)NC(C(C)C)C(=O)N2CCCC2C(=O)NC1C (stereo partly drawn) [Compound 67, C15-Amphomycin-9-(D-Pro)] | 0.5 | 1-2 | 8-16 | 2 | 2 | 2-4 | 2 | 64 | 0.5 | 0.5 | 8 | 0.5-1 | 2 | 1 to 2 µg/mL |  |
| CCCCCCCCCCCCCCC(=O)NC(CC(=O)O)C(=O)NC1C(=O)N2CCCCC2C(=O)NC(C(C)C(=O)O)C(=O)NC(CC(=O)O)C(=O)NCC(=O)NC(CC(=O)O)C(=O)NCC(=O)NC(C(C)NC(=O)CNC(=O)[C@@H](C)N)C(=O)NC(C(C)C)C(=O)N2CCCC2C(=O)NC1C (stereo partly drawn) [Compound 69, C15-Amphomycin-9-Gly-(D-Ala)] | 1 | 1 | 32 | 4 | 4 | 8 | 4 | >64 | 1 | 2 | 8 | 1 | 2 | 1 µg/mL |  |
| CCCCCCCCCCCCCCCCC(=O)NC(CC(=O)O)C(=O)NC1C(=O)N2CCCCC2C(=O)NC(C(C)C(=O)O)C(=O)NC(CC(=O)O)C(=O)NCC(=O)NC(CC(=O)O)C(=O)NCC(=O)NC(C(C)NC(=O)CCN)C(=O)NC(C(C)C)C(=O)N2CCCC2C(=O)NC1C (stereo not drawn) [Compound 80, C17-Amphomycin-9-(β-Ala)] | 0.125 | 0.5-1 | 16-32 | 0.5-1 | 1-2 | 0.5-1 | 0.5-1 | 64 | 0.125 | 0.25 | 8 | 0.25-0.5 | 2 |  | 80/0.5-1 μg/mL |
| CCCCCCCCCCCCOc1ccc(C(=O)NC(CC(=O)O)C(=O)NC2C(=O)N3CCCCC3C(=O)NC(C(C)C(=O)O)C(=O)NC(CC(=O)O)C(=O)NCC(=O)NC(CC(=O)O)C(=O)NCC(=O)NC(C(C)NC(=O)CN)C(=O)NC(C(C)C)C(=O)N3CCCC3C(=O)NC2C)cc1 (centres unmarked) [Compound 88, CH3—(CH2)11—O-p-Ph-C(═O)-Amphomycin-9-Gly] | 0.25 | 0.5-1 | 32-64 | 0.25-0.5 | 0.5-1 | 0.5-1 | 0.25-0.5 | >64 | 0.125 | 0.25 | 2-4 | 0.25-0.5 | 0.5-1 |  |  |
